Measurements reported in patent US10655185B2, “Methods for diagnosis and prognosis of epithelial tumors” (H. Lee Moffitt Cancer Center and Research Institute, Inc., priority 2014, dated 2020).

Tested on: LNCaP-104S cells
Assay: Genome-wide miRNA expression profiling of androgen deprived / androgen blocked LNCaP cells
Type: cell-based
Description: FIGS. 1A and 1B show expression of miR-17-92 and Frabin in Androgen Deprived LNCaP Cells. The androgen dependent cell line, LNCaP-104S, was subjected to androgen deprivation or androgen blockade for 3 weeks. Genome-wide miRNA expression profiling identified the miR-17-92 family to be down regulated by 1 week, and further reduced at 3 weeks of treatment. […] FIG. 1B is a Western blot of FGD4/Frabin expression in treated and untreated LNCaP-104S cells.
Prolonged androgen blockade leads to outgrowth of androgen independent (AI) cells and the development of castration resistant prostate cancer (CRPC). The transition to androgen independence can occur through several adaptive mechanisms and usually results in the acquisition of a more aggressive phenotype, compared to their androgen sensitive progenitors. […] However, the role of miRNAs in progression of androgen sensitive prostate cancer to CRPC has not been clearly defined. To study this transition, androgen sensitive (AS) LNCaP prostate cancer cells were subjected to androgen blockade until a subset of cells (CDXR) survived. […] The miR-17-92 cluster is one of the groups of miRNAs that is down regulated as the cancer cells progresses towards androgen […] (ADT) resistance.

CC(O)(CS(=O)(=O)c1ccc(F)cc1)C(=O)Nc1ccc(C#N)c(C(F)(F)F)c1 (stereo not shown) [CDX]
fold change in expression (Δ Change) of hsa-miR-17 (1 wk CDX): −3.37
fold change in expression (Δ Change) of hsa-miR-17* (1 wk CDX): −3.13
fold change in expression (Δ Change) of hsa-miR-18a (1 wk CDX): −4.36
fold change in expression (Δ Change) of hsa-miR-18b (1 wk CDX): −2.28
fold change in expression (Δ Change) of hsa-miR-20a (1 wk CDX): −3.31
fold change in expression (Δ Change) of hsa-miR-20a* (1 wk CDX): −1.25
fold change in expression (Δ Change) of hsa-miR-20b* (1 wk CDX): −0.56
fold change in expression (Δ Change) of hsa-miR-106a (1 wk CDX): −3.18
fold change in expression (Δ Change) of hsa-miR-17 (3 wks CDX): −24.99
fold change in expression (Δ Change) of hsa-miR-17* (3 wks CDX): −3.94
fold change in expression (Δ Change) of hsa-miR-18a (3 wks CDX): −14.13
fold change in expression (Δ Change) of hsa-miR-18b (3 wks CDX): −21.36
fold change in expression (Δ Change) of hsa-miR-20a (3 wks CDX): −4.12
fold change in expression (Δ Change) of hsa-miR-20a* (3 wks CDX): −18.17
fold change in expression (Δ Change) of hsa-miR-20b* (3 wks CDX): −4.60
fold change in expression (Δ Change) of hsa-miR-106a (3 wks CDX): −9.40
